{"source": "paper PMC5799297", "about": "“Metabolic Hydrolysis of Aromatic Amides in Selected Rat, Minipig, and Human In Vitro Systems” (Scientific Reports, 2018)", "key": {"[1]": {"text": "(§1) Pooled subcellular fractions of male Sprague-Dawley rat liver S9 fractions (10 donors), male Sprague-Dawley Aroclor 1254 induced rat liver S9 fractions (20 donors), human liver S9 fractions (mixed gender 10 donors), male Gottingen minipig liver microsomes (3 donors) and male Gottingen minipig liver S9 fractions (3 donors) were purchased from BioreclamationIVT (West Sussex, UK). Cryopreserved primary human hepatocytes (mixed gender 10 donors) were also purchased from BioreclamationIVT. Human CES1b, CES1c and CES2 Supersomes and human liver microsomes (mixed gender 150 donors) were purchased from Corning (Flintshire, UK). […]\n(§2) LC-MS/MS analysis was performed using a Waters UPLC instrument with an Acquity^TM binary solvent manager, Acquity^TM 4-position heated column manager and 2777 Ultra High Pressure Autosampler coupled to a Xevo-TQ MS triple quadrupole mass spectrometer (Waters Ltd, Herts, UK) with an electrospray ionisation (ESI) source. […] Incubations where the total parent amide decreased below 80% of the t0 baseline sample or the amine metabolite was detected were determined to be hydrolysed."}, "[2]": {"settings": "human, in vivo; cited from earlier work"}, "[3]": {"settings": "cited from earlier work"}, "AADAC": {"tested_on": "AADAC", "settings": "cited from earlier work"}, "[4]": {"assay": "Amide hydrolysis by minipig liver microsomes", "settings": "1 mg/ml protein, 0.5 µM amide, pH 7.4, up to 120 min, no NADPH", "text": "as §1, §2"}}, "note": "Where two headings read alike, the source gives them in different places."}
{"smiles": "O=C(CCl)Nc1ccccc1", "note": "[2-chloro-N-phenylacetamide]", "values": [{"measurement": "change in rate of hydrolysis as a result of Aroclor 1254 induction", "setting": "[1]", "value": "enhanced rate of hydrolysis"}]}
{"smiles": "Nc1ccc([N+](=O)[O-])c(C(F)(F)F)c1", "note": "[3-trifluoromethyl-4-nitroaniline]", "values": [{"measurement": "hepatotoxicity", "setting": "[2]", "value": "associated with hepatotoxicity"}]}
{"smiles": "CC(=O)Nc1ccccc1", "note": "[acetanilide, Acetanilide]", "values": [{"measurement": "amide hydrolysis in humans in vivo", "setting": "[3]", "value": "has been observed"}, {"measurement": "dose hydrolysed in humans in vivo", "setting": "[3]", "value": "approximately 10%"}]}
{"smiles": "CC(O)(CS(=O)(=O)c1ccc(F)cc1)C(=O)Nc1ccc(C#N)c(C(F)(F)F)c1", "note": "(stereo not shown) [bicalutamide, Bicalutamide]", "values": [{"measurement": "hepatotoxicity", "setting": "[2]", "value": "few cases of hepatotoxicity"}]}
{"smiles": "CC(C)C(=O)Nc1ccc([N+](=O)[O-])c(C(F)(F)F)c1", "note": "[flutamide, Flutamide]", "values": [{"measurement": "enzyme mainly responsible for hydrolysis", "setting": "AADAC", "value": "AADAC"}]}
{"smiles": "CC(=O)Nc1ccc(O)cc1", "note": "[paracetamol, Paracetamol]", "values": [{"measurement": "dose hydrolysed in humans in vivo", "setting": "[3]", "value": "1–2%"}]}
{"smiles": "CCCNC(C)C(=O)Nc1ccccc1C", "note": "(stereo not shown) [prilocaine, Prilocaine]", "values": [{"measurement": "amide hydrolysis in humans in vivo", "setting": "[3]", "value": "undergo hydrolysis"}]}
{"smiles": "CCC(=O)Nc1ccc(Cl)c(Cl)c1", "note": "[propanil, Propanil]", "values": [{"measurement": "amide hydrolysis in humans in vivo", "setting": "[3]; human", "value": "undergo hydrolysis"}, {"measurement": "amide hydrolysis", "setting": "[4]", "value": "successful hydrolysis"}]}
